Experiments:
[1] = test system: normal human aortic vascular smooth muscle cells (HAVSMC); assay: MTT assay, HAVSMC; type: cell-based
Method: Cell density measurements were performed using a hemocytometer to count reproductive cells resistant to staining with trypan blue. Approximately 20,000 cells were plated into each well of 96-well flat-bottomed micro-titer plates. After 12 h or 24 h incubation at 37° C., medium containing either COH-SR4 (ranging 0-200 μM) or elesclomol (ranging 0-20 μM) were added to the cells. After 24 h, 48 h or 96 h incubation, 20 μL of 5 mg/mL MTT were introduced to each well and incubated for 2 h. The plates were centrifuged and medium was decanted. Cells were subsequently dissolved in 100 μl DMSO with gentle shaking for 2 h at room temperature, followed by measurement of OD570 (91).

A2058 p^0 cells = assay: Oxygen consumption rate in mitochondrial DNA-depleted cells; type: cell-based, human; details: compared with wild-type A2058; data not shown
Method: (§1) Oxygen consumption rate (OCR), a measure of OxPhos, and extracellular acidification rate (ECAR), a measure of lactate production by glycolysis, were measured using a Seahorse Xf^e96 Flux Analyzers (Seahorse Biosciences, North Billerica, Mass.). Cells were seeded in DMEM media in Seahorse 96-well tissue culture plates at a density of 5×10^3 cells/well and allowed to adhere for 24 h. Prior to the assay, the media was changed to unbuffered DMEM containing 25 mM glucose, 1 mM pyruvate and 1 mM glutamine, with 0.2% fatty acid/endotoxin-free BSA (w/v) (pH 7.4) and the cells were equilibrated for 30 min at 37° C. Test compounds were injected during the assay and OCR and ECAR were measured using 2-3 min measurement periods. Similar sets of experiments were performed in the presence of the mitochondria recoupler agent 6-KCH or the mitochondrial permeability transition (MPT) pore blocker CSA, where each compound was injected into the assay media prior to COH-SR4 or FCCP injection. […] OCR was measured throughout the different injections of the stressors and test compounds (indicated by arrows in the figures).
To verify that COH-SR4 acts directly on mitochondrial respiration, OCR in mitochondrial DNA-depleted (p^0) A2058 cells was measured, as well as freshly isolated mouse liver mitochondria and treated with either COH-SR4 or FCCP.

H358 lung cancer tumor = assay: Histopathology of H358 tumor sections; type: in vivo, mouse; details: treated vs control
Method: For lung cancer studies, control and COH-SR4 treated H358 lung cancer bearing mice tumor sections were used for histopathologic analyses. Immuno-histochemistry analyses were performed for Ki67, CD31, E-cadherin, and pAMPK expressions. […] Sections were counterstained with Hematoxylin (blue). Photomicrographs at 40× magnification were acquired using Olympus DP 72 microscope and were processed with DP2-BSW software. Percent staining was determined by measuring positive immuno-reactivity per unit area. The intensity of antigen staining was quantified by digital image analysis using Image Pro plus 6.3 software.
Control and COH-SR4 treated tumor sections obtained from the in-vivo animal studies of Example 31 were used for histopathologic analyses. […] Arrows represent the area for positive staining for an antigen. Bars represent means with 95% confidence intervals (n=5). Asterisks denote statistically significant differences (p<0.001) compared with control by two-sided Student's t test. Statistical significance of difference was determined following image analyses as described in methods section.

[2] = COH-SR4 in mice serum, HPLC analysis; type: in vivo, mouse; details: 4 mg/kg oral
Method: Hsd: Athymic nude nu/nu mice obtained from Harlan, Indianapolis, Ind. were used for the oral administration of COH-SR4 on lung cancer progression in in-vivo xenograft model. Twelve 10-weeks-old mice were divided into two groups of 6 animals (treated with corn oil (vehicle), and COH-SR4 4 mg/kg b.w.). All animals were subcutaneously injected with 2×10^6 H358 cells in 100 μL of PBS into one flank of each mouse. Treatment was started 10 days after the implantation of cells to see palpable tumor growth. Treatment consisted of 0.1 mg (4 mg/kg b.w.) of COH-SR4/mice in 200 μL corn oil by oral gavage alternate day. Control groups were treated with 200 μL corn oil by oral gavage alternate day. Animals were examined daily for signs of tumor growth and body weights were recorded. […] Tumors were measured in two dimensions using calipers. […] (FIG. 81B). […] Photographs of animals were taken at day 1, day 10, day 14, day 18, day 30 and day 60 after subcutaneous injection, are shown for all groups (FIG. 81D). The absorption of orally administered COH-SR4 in mice was assessed.

[3] = test system: mouse C2C12, HepG2, and 3T3-L1 cells; assay: Oxygen consumption rate in myotubes, liver cells, adipocytes; type: cell-based
Method: as §1, with “injection. In separate experiments with A2058 and A2058 p° cells, a modified Mitostress test was performed accordingly per Seahorse protocols (89, 90).” for “injection.”, “figures). […]” for “figures).”

human VEGF promoter = assay: VEGF promoter luciferase reporter in U251; type: cell-based; details: U251, 1 or 3 μM, 24 hours
Method: U251 cells expressing luciferase reporter containing human VEGF promoter were incubated with various concentrations of COH-SR4 (0, 1, or 3 μM) for 24 hours. Luciferase activity was determined and normalized to the cell number for each treatment. Data were represented as a ratio to vehicle control that was treated by DMSO.

[4] = test system: human melanoma cells (SK-MEL28, A2058, A101D); assay: Oxygen consumption rate in melanoma cells, Seahorse; type: cell-based; details: 1-10 μM, monitored 2 h
Method: as §1, with “periods.” for “periods. Similar sets of experiments were performed in the presence of the mitochondria recoupler agent 6-KCH or the mitochondrial permeability transition (MPT) pore blocker CSA, where each compound was injected into the assay media prior to COH-SR4 or FCCP injection.”
The importance of mitochondria as oxygen sensors as well as producers of ATP and ROS has recently become a focal point of cancer research. […] OCR was continuously monitored for 2 h. Mitochondria recoupler 6-KCH (200 μM) was added to the assay system prior to injection of COH-SR4 (5 μM) as shown by arrows and OCR of A101D cells were monitored (FIG. 37B). […]

## O=C(Nc1cc(Cl)cc(Cl)c1)Nc1cc(Cl)cc(Cl)c1 [COH-SR4, 1,3-bis(3,5-dichlorophenyl) urea]
[1]; 96 h
  cytotoxicity in normal cells: did not cause any significant cytotoxicity
[1]; concentrations effective in lung cancer cell lines, 48 h
  cytotoxicity in normal cells: did not exert any significant cytotoxicity
A2058 p^0 cells
  OCR in mitochondrial DNA-depleted cells: failed to increase OCR
H358 lung cancer tumor; ABC staining
  Ki67 and CD31 levels: decreased the levels of proliferation marker Ki67, and angiogenesis marker CD31
H358 lung cancer tumor
  pAMPK and E-cadherin levels: increased the levels of pAMPK and normal differentiation marker E-cadherin
[2]
  serum concentration: 1100 ± 300 nM
[3]
  OCR: dose- and time dependently increased the OCR
Human VEGF promoter
  luciferase expression (VEGF promoter): inhibited luciferase expression of VEGF protein
[4]
  oxygen consumption rate (OCR): increased OCR in a time-dependent and dose-dependent manner

— patent US9808434B2, “Compound for treating cancer and diabetes” (CITY OF HOPE, priority 2011, dated 2017)
